From ChEMBL document CHEMBL2034905, “Synthesis of benzimidazolyl-1,3,4-oxadiazol-2ylthio-N-phenyl (benzothiazolyl) acetamides as antibacterial, antifungal and antituberculosis agents” (Eur J Med Chem, 2012)
In brackets after ≈: the same amount, converted by molar mass.

Tests used:
[1] = tested on: Mycobacterium tuberculosis; assay: Antituberculosis activity against Mycobacterium tuberculosis H37Rv by BACTEC MGIT method; assay type: functional
[2] = tested on: Mycobacterium tuberculosis; assay: Antituberculosis activity against Mycobacterium tuberculosis H37Rv at 6.25 ug/ml by BACTEC MGIT method; assay type: functional
Proteus vulgaris [3] = assay: Antibacterial activity against Proteus vulgaris MTCC 1771 by agar streak dilution method; assay type: functional
Escherichia coli [4] = assay: Antibacterial activity against Escherichia coli MTCC 739 by agar streak dilution method; assay type: functional
Aspergillus niger [5] = assay: Antifungal activity against Aspergillus niger MTCC 282 at 100 ug/disc by paper disc diffusion technique; assay type: functional; settings: read-out: IZ
Proteus vulgaris [6] = assay: Antibacterial activity against Proteus vulgaris MTCC 1771 at 100 ug/disc by paper disc diffusion technique; assay type: functional; settings: read-out: IZ
Klebsiella pneumoniae [7] = assay: Antibacterial activity against Klebsiella pneumoniae MTCC 109 at 100 ug/disc by paper disc diffusion technique; assay type: functional; settings: read-out: IZ
Staphylococcus aureus [8] = assay: Antibacterial activity against Staphylococcus aureus MTCC 96 at 100 ug/disc by paper disc diffusion technique; assay type: functional; settings: read-out: IZ
Staphylococcus aureus [9] = assay: Antibacterial activity against Staphylococcus aureus MTCC 96 by agar streak dilution method; assay type: functional
Shigella flexneri [10] = assay: Antibacterial activity against Shigella flexneri MTCC 1457 at 100 ug/disc by paper disc diffusion technique; assay type: functional; settings: read-out: IZ
Candida albicans [11] = assay: Antifungal activity against Candida albicans MTCC 183 at 100 ug/disc by paper disc diffusion technique; assay type: functional; settings: read-out: IZ
Pseudomonas aeruginosa [12] = assay: Antibacterial activity against Pseudomonas aeruginosa MTCC 741 by agar streak dilution method; assay type: functional
Aspergillus niger [13] = assay: Antifungal activity against Aspergillus niger MTCC 282 by agar streak dilution method; assay type: functional
Bacillus cereus [14] = assay: Antibacterial activity against Bacillus cereus MTCC 430 at 100 ug/disc by paper disc diffusion technique; assay type: functional; settings: read-out: IZ
Klebsiella pneumoniae [15] = assay: Antibacterial activity against Klebsiella pneumoniae MTCC 109 by agar streak dilution method; assay type: functional
Bacillus cereus [16] = assay: Antibacterial activity against Bacillus cereus MTCC 430 by agar streak dilution method; assay type: functional
Aspergillus fumigatus [17] = assay: Antifungal activity against Aspergillus fumigatus MTCC 343 by agar streak dilution method; assay type: functional
Escherichia coli [18] = assay: Antibacterial activity against Escherichia coli MTCC 739 at 100 ug/disc by paper disc diffusion technique; assay type: functional; settings: read-out: IZ
[19] = tested on: Mycobacterium tuberculosis; assay: Antituberculosis activity against Mycobacterium tuberculosis H37Rv at 6.25 ug/ml by Lowenstein-Jensen method; assay type: functional
Aspergillus clavatus [20] = assay: Antifungal activity against Aspergillus clavatus MTCC 1323 by agar streak dilution method; assay type: functional
Aspergillus clavatus [21] = assay: Antifungal activity against Aspergillus clavatus MTCC 1323 at 100 ug/disc by paper disc diffusion technique; assay type: functional; settings: read-out: IZ
Shigella flexneri [22] = assay: Antibacterial activity against Shigella flexneri MTCC 1457 by agar streak dilution method; assay type: functional
[23] = Lipophilicity, log P of the compound; assay type: physicochemical; settings: octanol/water
Pseudomonas aeruginosa [24] = assay: Antibacterial activity against Pseudomonas aeruginosa MTCC 741 at 100 ug/disc by paper disc diffusion technique; assay type: functional; settings: read-out: IZ
Aspergillus fumigatus [25] = assay: Antifungal activity against Aspergillus fumigatus MTCC 343 at 100 ug/disc by paper disc diffusion technique; assay type: functional; settings: read-out: IZ
Salmonella typhi [26] = assay: Antibacterial activity against Salmonella typhi MTCC 733 at 100 ug/disc by paper disc diffusion technique; assay type: functional, Salmonella enterica subsp. enterica serovar Typhi; settings: Salmonella enterica, read-out: IZ
Salmonella typhi [27] = assay: Antibacterial activity against Salmonella typhi MTCC 733 by agar streak dilution method; assay type: functional, Salmonella enterica subsp. enterica serovar Typhi; settings: Salmonella enterica
Candida albicans [28] = assay: Antifungal activity against Candida albicans MTCC 183 by agar streak dilution method; assay type: functional
[29] = tested on: Mycobacterium tuberculosis; assay: Antituberculosis activity against Mycobacterium tuberculosis H37Rv by Lowenstein-Jensen method; assay type: functional

Compound	MIC [1] [µg/mL]	MIC (Proteus vulgaris [3]) [µg/mL]	MIC (Escherichia coli [4]) [µg/mL]	zone of inhibition at 100 µg/disc (Aspergillus niger [5]) [mm]	zone of inhibition at 100 µg/disc (Proteus vulgaris [6]) [mm]	zone of inhibition at 100 µg/disc (Klebsiella pneumoniae [7]) [mm]	zone of inhibition at 100 µg/disc (Staphylococcus aureus [8]) [mm]	MIC (Staphylococcus aureus [9]) [µg/mL]	zone of inhibition at 100 µg/disc (Shigella flexneri [10]) [mm]	zone of inhibition at 100 µg/disc (Candida albicans [11]) [mm]	MIC (Pseudomonas aeruginosa [12]) [µg/mL]	MIC (Aspergillus niger [13]) [µg/mL]	zone of inhibition at 100 µg/disc (Bacillus cereus [14]) [mm]	MIC (Klebsiella pneumoniae [15]) [µg/mL]	MIC (Bacillus cereus [16]) [µg/mL]	MIC (Aspergillus fumigatus [17]) [µg/mL]	zone of inhibition at 100 µg/disc (Escherichia coli [18]) [mm]	inhibition at 6.25 µg/mL [19] [%]	MIC (Aspergillus clavatus [20]) [µg/mL]	zone of inhibition at 100 µg/disc (Aspergillus clavatus [21]) [mm]	further results
CO[C@H]1/C=C/O[C@@]2(C)Oc3c(C)c(O)c4c(O)c(c(/C=N/N5CCN(C)CC5)c(O)c4c3C2=O)NC(=O)/C(C)=C\C=C\[C@H](C)[C@H](O)[C@@H](C)[C@@H](O)[C@@H](C)[C@H](OC(C)=O)[C@@H]1C [RIFAMPIN]	0.25 (≈ 0.304 µM)																				inhibition at 6.25 µg/mL [2]: 99%
COc1ccc(NC(=O)CSc2nnc(Cn3cnc4ccccc43)o2)cc1	6.25 (≈ 15.8 µM)	25 (≈ 63.2 µM)	50 (≈ 126 µM)	16	21	11	13	100 (≈ 253 µM)	19	22	50 (≈ 126 µM)	100 (≈ 253 µM)	18	100 (≈ 253 µM)	50 (≈ 126 µM)	100 (≈ 253 µM)	20	99	100 (≈ 253 µM)	< 10	inhibition at 6.25 µg/mL [2]: 99%; MIC (Shigella flexneri [22]): 50 µg/mL (≈ 126 µM); logP [23]: 2.37; zone of inhibition at 100 µg/disc (Pseudomonas aeruginosa [24]): 21 mm; zone of inhibition at 100 µg/disc (Aspergillus fumigatus [25]): 10 mm; zone of inhibition at 100 µg/disc (Salmonella typhi [26]): 20 mm; MIC (Salmonella typhi [27]): 50 µg/mL (≈ 126 µM); MIC (Candida albicans [28]): 50 µg/mL (≈ 126 µM); MIC [29]: 6.25 µg/mL (≈ 15.8 µM)
N#Cc1ccc2nc(NC(=O)CSc3nnc(Cn4cnc5ccccc54)o3)sc2c1	> 6.25	50 (≈ 112 µM)	25 (≈ 55.9 µM)	18	19	25	24	6.25 (≈ 14 µM)	21	13	50 (≈ 112 µM)	50 (≈ 112 µM)	22	25 (≈ 55.9 µM)	50 (≈ 112 µM)	50 (≈ 112 µM)	24	95	100 (≈ 223 µM)	18	MIC (Shigella flexneri [22]): 50 µg/mL (≈ 112 µM); logP [23]: 3.72; zone of inhibition at 100 µg/disc (Pseudomonas aeruginosa [24]): 15 mm; zone of inhibition at 100 µg/disc (Aspergillus fumigatus [25]): 22 mm; zone of inhibition at 100 µg/disc (Salmonella typhi [26]): 17 mm; MIC (Salmonella typhi [27]): 100 µg/mL (≈ 223 µM); MIC (Candida albicans [28]): 100 µg/mL (≈ 223 µM); MIC [29]: 100 µg/mL (≈ 223 µM)
O=C(CSc1nnc(Cn2cnc3ccccc32)o1)Nc1nc2ccc(Cl)cc2s1	> 6.25	50 (≈ 109 µM)	50 (≈ 109 µM)	16	20	20	22	12.5 (≈ 27.4 µM)	25	14	25 (≈ 54.7 µM)	100 (≈ 219 µM)	27	50 (≈ 109 µM)	6.25 (≈ 13.7 µM)	100 (≈ 219 µM)	20	97	100 (≈ 219 µM)	15	MIC (Shigella flexneri [22]): 6.25 µg/mL (≈ 13.7 µM); logP [23]: 4.25; zone of inhibition at 100 µg/disc (Pseudomonas aeruginosa [24]): 23 mm; zone of inhibition at 100 µg/disc (Aspergillus fumigatus [25]): 13 mm; zone of inhibition at 100 µg/disc (Salmonella typhi [26]): 22 mm; MIC (Salmonella typhi [27]): 50 µg/mL (≈ 109 µM); MIC (Candida albicans [28]): 100 µg/mL (≈ 219 µM); MIC [29]: 62.5 µg/mL (≈ 137 µM)
Cc1ccc(NC(=O)CSc2nnc(Cn3cnc4ccccc43)o2)cc1	> 6.25	100 (≈ 264 µM)	100 (≈ 264 µM)	< 10	14	< 10	11	100 (≈ 264 µM)	< 10	14	100 (≈ 264 µM)	100 (≈ 264 µM)	13	100 (≈ 264 µM)	100 (≈ 264 µM)	100 (≈ 264 µM)	14	95	100 (≈ 264 µM)	12	MIC (Shigella flexneri [22]): 100 µg/mL (≈ 264 µM); logP [23]: 2.98; zone of inhibition at 100 µg/disc (Pseudomonas aeruginosa [24]): 14 mm; zone of inhibition at 100 µg/disc (Aspergillus fumigatus [25]): < 10 mm; zone of inhibition at 100 µg/disc (Salmonella typhi [26]): 17 mm; MIC (Salmonella typhi [27]): 100 µg/mL (≈ 264 µM); MIC (Candida albicans [28]): 100 µg/mL (≈ 264 µM); MIC [29]: 100 µg/mL (≈ 264 µM)
CC[C@@H](CO)NCCN[C@@H](CC)CO [ETHAMBUTOL]	3.12 (≈ 15.3 µM)																				inhibition at 6.25 µg/mL [2]: 99%
O=C(CSc1nnc(Cn2cnc3ccccc32)o1)Nc1nc2ccc(I)cc2s1	> 6.25	12.5 (≈ 22.8 µM)	50 (≈ 91.2 µM)	14	26	14	22	12.5 (≈ 22.8 µM)	22	19	100 (≈ 182 µM)	100 (≈ 182 µM)	23	100 (≈ 182 µM)	25 (≈ 45.6 µM)	100 (≈ 182 µM)	15	96	100 (≈ 182 µM)	14	MIC (Shigella flexneri [22]): 25 µg/mL (≈ 45.6 µM); logP [23]: 5.05; zone of inhibition at 100 µg/disc (Pseudomonas aeruginosa [24]): 14 mm; zone of inhibition at 100 µg/disc (Aspergillus fumigatus [25]): < 10 mm; zone of inhibition at 100 µg/disc (Salmonella typhi [26]): 16 mm; MIC (Salmonella typhi [27]): 100 µg/mL (≈ 182 µM); MIC (Candida albicans [28]): 100 µg/mL (≈ 182 µM); MIC [29]: 200 µg/mL (≈ 365 µM)
NC(=O)c1cnccn1 [PYRAZINAMIDE]	6.25 (≈ 50.8 µM)																				inhibition at 6.25 µg/mL [2]: 99%
